Reference: patent publication US9145354B2, “Pharmaceutical compounds” (priority 2011, dated 2015)
Read-outs that look alike come from different tables or passages of the source.

Tests used:
full length NS3/4a = full length NS3/4a (Hepatitis C virus genotype 1b (isolate BK) (HCV), UniProt P26663); assay: NS3 Protease Assay (Example A), FRET-based; type: biochemical
Procedure, shortened: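 Full-length NS3/4a, made in-house, with an NS4A/B-derived peptide substrate carrying QXL520 quencher and 5-FAMsp fluorophore. Buffer 50 mM Tris pH8, 20 mM DTT, 1% CHAPS, 10% glycerol, 5% DMSO. Fluorescence followed 30 min at room temperature; IC50 from initial rates of replicate curves.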

[1] = tested on: HCV subgenomic replicon in Huh-7 cells; assay: Replicon Assay (Example B), luciferase readout EC50; type: cell-based; conditions: Hepatitis C virus, Huh-7, replicon assay, luciferase readout; upper value of the cell pair; read-out: Assay B EC50
Procedure, shortened: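 Huh-7 cells carrying a luciferase-neo HCV subgenomic replicon (NS3–NS5b) were treated with semilog compound dilutions (0.1% DMSO final), in triplicate, for 72 h at 37° C. EC50 came from Bright-Glo luciferase signal as a proxy for replicon RNA; viability was read by Alamar blue.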

[2] = Replicon Assay (Example B), Alamar Blue cytotoxicity CC50; type: cell-based; conditions: human, lower value of the cell pair
Procedure, shortened: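 Huh-7 cells carrying a luciferase/neo HCV subgenomic replicon (NS3–NS5b) were treated with semilog compound dilutions in triplicate (0.1% DMSO) for 72 h at 37 °C. Viability came from Alamar blue resazurin-to-resorufin fluorescence (535/590 nm) for CC50. EC50 came from Bright-Glo luciferase luminescence as a proxy for HCV RNA.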

[3] = HCV NS3 protease assay, full length NS3/4a, read-out: Assay A IC50 (μM) average
[4] = read-out: IC50 against the protease activity of the full length NS3/4a

Sequence of full length NS3/4a (P26663 1027-1657): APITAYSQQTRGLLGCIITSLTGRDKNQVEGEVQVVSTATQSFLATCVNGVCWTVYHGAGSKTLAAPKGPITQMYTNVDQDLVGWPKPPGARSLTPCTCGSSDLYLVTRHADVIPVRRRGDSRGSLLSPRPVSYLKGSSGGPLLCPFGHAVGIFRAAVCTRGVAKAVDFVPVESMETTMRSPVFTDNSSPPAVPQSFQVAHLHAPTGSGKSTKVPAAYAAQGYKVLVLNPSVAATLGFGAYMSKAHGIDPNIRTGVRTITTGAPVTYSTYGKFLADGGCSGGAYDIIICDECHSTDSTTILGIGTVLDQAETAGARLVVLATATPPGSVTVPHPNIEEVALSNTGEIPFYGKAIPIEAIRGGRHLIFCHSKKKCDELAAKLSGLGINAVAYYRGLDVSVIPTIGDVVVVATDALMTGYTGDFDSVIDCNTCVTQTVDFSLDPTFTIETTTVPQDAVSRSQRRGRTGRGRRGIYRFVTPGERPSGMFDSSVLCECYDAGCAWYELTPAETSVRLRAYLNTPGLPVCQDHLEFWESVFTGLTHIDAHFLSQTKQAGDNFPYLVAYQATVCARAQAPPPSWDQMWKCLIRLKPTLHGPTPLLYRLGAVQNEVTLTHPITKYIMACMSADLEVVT

Row | Structure (SMILES) | IC50 (full length NS3/4a; [3]) | EC50 [1] | CC50 at 72 h [2] | IC50 (full length NS3/4a; [4])
1 | CC[C@@H](NCCO)c1ccc(Cl)c(C(=O)c2ccccc2)c1F [Example 176, 2-{[(1R)-1-(3-benzoyl-4-chloro-2-fluorophenyl)propyl]amino}ethan-1-ol] | 0.29 µM | > 3000 nM | > 3000 nM | 
2 | CC[C@H](N[C@@H](C)CO)c1ccc(Cl)c(C(=O)c2ccc(N)nc2)c1F [Example 177, (2S)-2-{[(1S)-1-{3-[(6-aminopyridin-3-yl)carbonyl]-4-chloro-2-fluorophenyl}propyl]amino}propan-1-ol] | 0.18 µM | > 3000 nM | > 3000 nM | 
3 | CC[C@H](N[C@H](C)CO)c1ccc(Cl)c(C(=O)c2ccc(N)nc2)c1F [Example 178, (2R)-2-{[(1S)-1-{3-[(6-aminopyridin-3-yl)carbonyl]-4-chloro-2-fluorophenyl}propyl]-amino}propan-1-ol] | 0.088 µM | 250 nM | > 3000 nM | 
4 | CCC(NC(C)(C)CO)c1ccc(Cl)c(C(=O)c2ccccc2)c1F (centres unmarked) [Example 179, 2-{[1-(3-benzoyl-4-chloro-2-fluorophenyl)-propyl]amino}-2-methylpropan-1-ol] | 0.063 µM | 300 nM | > 3000 nM | 
5 | CC[C@@H](NCCC(N)=O)c1ccc(Cl)c(C(=O)c2ccc(N)nc2)c1F [Example 180, 3-{[(1R)-1-{3-[(6-Aminopyridin-3-yl)carbonyl]-4-chloro-2-fluorophenyl}propyl]amino}propanamide] | 0.14 µM | 270 nM | > 3000 nM | 
6 | CC[C@@H](NCCC(N)=O)c1ccc(Cl)c(C(=O)c2cnc(N)cn2)c1F [Example 183, 3-{[(1R)-1-{3-[(5-Aminopyrazin-2-yl)carbonyl]-4-chloro-2-fluorophenyl}propyl]amino}propanamide] | 0.5 µM | 2200 nM | > 10000 nM | 
7 | COc1ccc([C@H](N[C@@H](C)CC(N)=O)C2CC2)c(F)c1C(=O)c1cccc(F)c1 [Example 224, (3S)-3-{[(R)-cyclopropyl({2-fluoro-3-[(3-fluorophenyl)carbonyl]-4-methoxyphenyl})methyl]amino}butanamide] | 0.081 µM | 190 nM | > 3000 nM | 
8 | CC[C@@H](CC(N)=O)N[C@H](CC)c1ccc(Cl)c(C(=O)c2ccc(N)nc2)c1F [Example 225, (3S)-3-{[(1R)-1-{3-[(6-aminopyridin-3-yl)carbonyl]-4-chloro-2-fluorophenyl}propyl]amino} pentanamide] | 0.35 µM | 28 nM | > 3000 nM | 
9 | CC[C@@H](N[C@@H](C)CC(N)=O)c1ccc(Cl)c(C(=O)c2cccc(O)c2)c1F [Example 227, (3S)-3-{[(1R)-1-{4-chloro-2-fluoro-3-[(3-hydroxyphenyl)carbonyl]phenyl}propyl]amino} butanamide] | 0.15 µM | 11 nM | > 3000 nM | < 1 µM
10 | CC[C@@H](N[C@@H](C)CC(N)=O)c1ccc(Cl)c(C(=O)c2ccc3c(n2)NC(=O)CO3)c1F [Example 229, (3S)-3-{[(1R)-1-[4-chloro-2-fluoro-3-({3-oxo-2H,3H,4H-pyrido[3,2-b][1,4]oxazin-6-yl}carbonyl)phenyl]propyl]amino}butanamide] | 1.1 µM | 1900 nM | > 3000 nM | 1 to 5 µM
11 | CC[C@@H](N[C@@H](C)CC(N)=O)c1ccc(Cl)c(C(=O)c2ccc(O)cc2)c1F [Example 230, (3S)-3-{[(1R)-1-{4-chloro-2-fluoro-3-[(4-hydroxyphenyl)carbonyl]phenyl}propyl]amino} butanamide] | 0.55 µM | 37 nM | > 3000 nM | < 1 µM
12 | CC[C@@H](N[C@@H](C)CC(N)=O)c1ccc(Cl)c(C(=O)c2ccc(N)c(Cl)c2)c1F [Example 234, (3S)-3-{[(1R)-1-{3-[(4-amino-3-chlorophenyl)carbonyl]-4-chloro-2-fluorophenyl}propyl]amino} butanamide] | 0.14 µM | 2.8 nM | > 1000 nM | < 1 µM
13 | CC[C@@H](N[C@@H](C)CC(N)=O)c1ccc(Cl)c(C(=O)c2ccc(C#N)c(OC)c2)c1F [Example 235, (3S)-3-{[(1R)-1-{4-chloro-3-[(4-cyano-3-methoxyphenyl)carbonyl]-2-fluorophenyl}propyl]amino} butanamide] | 0.13 µM | 8.8 nM | > 1000 nM | < 1 µM
14 | C[C@@H](CC(N)=O)N[C@@H](c1ccc(Cl)c(C(=O)c2ccc(N)cn2)c1F)C1CC1 [Example 237, (3S)-3-{[(R)-{3-[(5-aminopyridin-2-yl)carbonyl]-4-chloro-2-fluorophenyl}(cyclopropyl)methyl]amino}butanamide] | 0.31 µM | 47 nM | > 1000 nM | 
15 | C[C@@H](CC(N)=O)N[C@@H](c1ccc(Cl)c(C(=O)c2ccc(C#N)cn2)c1F)C1CC1 [Example 238, (3S)-3-{[(R)-{4-chloro-3-[(5-cyanopyridin-2-yl)carbonyl]-2-fluorophenyl}(cyclopropyl)methyl]amino}butanamide] | 0.11 µM | 30 nM | > 1000 nM | 
16 | CC[C@@H](N[C@@H](C)CC(N)=O)c1ccc(Cl)c(C(=O)c2cc(C)c(N)cn2)c1F [Example 239, (3S)-3-{[(1R)-1-{3-[(5-amino-4-methylpyridin-2-yl)carbonyl]-4-chloro-2-fluorophenyl}propyl]amino} butanamide] | 0.5 µM | 38 nM | > 1000 nM | 
17 | CC[C@@H](N[C@@H](C)CC(=O)NCCO)c1ccc(Cl)c(C(=O)c2ccc(N)nc2)c1F [Example 242, (3S)-3-{[(1R)-1-{3-[(6-aminopyridin-3-yl)carbonyl]-4-chloro-2-fluorophenyl}propyl]amino}-N-(2-hydroxyethyl)butanamide] | 0.49 µM | 98 nM | > 1000 nM | 
18 | CC[C@@H](N[C@@H](C)CC(N)=O)c1ccc(Cl)c(C(=O)c2ccc3c(c2)OCC(=O)N3)c1F [Example 247, (3S)-3-{[(1R)-1-{4-chloro-2-fluoro-3-[(3-oxo-3,4-dihydro-2H-1,4-benzoxazin-7-yl)carbonyl]phenyl}propyl]amino}butanamide] | 0.29 µM | 21 nM | > 1000 nM | < 1 µM
19 | CC[C@@H](N[C@@H](C)CC(N)=O)c1ccc(Cl)c(C(=O)c2ccc3c(c2)OCCN3)c1F [Example 249, (3S)-3-{[(1R)-1-{4-chloro-3-[(3,4-dihydro-2H-1,4-benzoxazin-7-yl)carbonyl]-2-fluorophenyl}propyl]amino} butanamide] | 0.27 µM | 33 nM | > 1000 nM | 
20 | CC[C@@H](NC(C)(C)CC(N)=O)c1ccc(Cl)c(C(=O)c2ccc(N)nc2)c1F [Example 250, 3-{[(1R)-1-{3-[(6-aminopyridin-3-yl)carbonyl]-4-chloro-2-fluorophenyl}propyl]amino}-3-methylbutanamide] | 0.095 µM | 29 nM | > 1000 nM | 
21 | CC[C@H](NC(C)(C)CC(N)=O)c1ccc(Cl)c(C(=O)c2ccc(N)nc2)c1F [Example 251, 3-{[(1S)-1-{3-[(6-aminopyridin-3-yl)carbonyl]-4-chloro-2-fluorophenyl}propyl]amino}-3-methylbutanamide] | 0.3 µM | > 1000 nM | > 1000 nM | 
22 | CC[C@@H](N[C@@H](C)CC(N)=O)c1ccc(OC)c(C(=O)c2ccc(N)nc2)c1F [Example 252, (3S)-3-{[(1R)-1-{3-[(6-aminopyridin-3-yl)carbonyl]-2-fluoro-4-methoxyphenyl}propyl]amino}butanamide] | 0.18 µM | 130 nM | > 1000 nM | 
23 | C[C@@H](CC(N)=O)N[C@@H](c1ccc(Cl)c(C(=O)c2ccc(N)c(C#N)c2)c1F)C1CC1 [Example 255, (3S)-3-{[(R)-{3-[(4-amino-3-cyanophenyl)carbonyl]-4-chloro-2-fluorophenyl}(cyclopropyl)methyl]amino}butanamide] | 0.24 µM | 27 nM | > 1000 nM | 
24 | C=CC[C@@H](N[C@@H](C)CC(N)=O)c1ccc(Cl)c(C(=O)c2ccc(N)nc2)c1F [Example 256, (3S)-3-{[(1R)-1-{3-[(6-aminopyridin-3-yl)carbonyl]-4-chloro-2-fluorophenyl}but-3-en-1-yl]amino} butanamide] | 0.47 µM | 46 nM | > 1000 nM | 
25 | CCC[C@@H](N[C@@H](C)CC(N)=O)c1ccc(Cl)c(C(=O)c2ccc(N)nc2)c1F [Example 258, (3S)-3-{[(1R)-1-{3-[(6-aminopyridin-3-yl)carbonyl]-4-chloro-2-fluorophenyl}butyl]amino} butanamide] | 0.28 µM | 20 nM | > 1000 nM | < 1 µM
26 | CC[C@@H](N[C@@H](C)CC(N)=O)c1ccc(Cl)c(C(=O)c2ccc(N)c(C)c2)c1F [Example 259, (3S)-3-{[(1R)-1-{3-[(4-amino-3-methylphenyl)carbonyl]-4-chloro-2-fluorophenyl}propyl]amino} butanamide] | 0.11 µM | 21 nM | > 1000 nM | < 1 µM
